Test results: paper PMC13164762, “Development and Validation of an LC-MS/MS Method for the Quantitation of JNJ-64619178 (JNJ) in Mouse Plasma: Characterization of In Vitro and In Vivo Pharmacokinetic Properties” (Molecules, 2026)
Values after ≈ are worked out from the molar mass of the structure shown. Values joined by “and” are separate entries in the source; they are usually repeats but may differ in a detail not shown here. Identical values can stand only once.

Assays:
[1] = Caco-2 permeability study; type: in vitro ADME, human; details: human, Caco-2, absorptive direction (apical to basal), read-out: apparent permeability (Papp), Caco-2
Experimental: (§1) Human colon carcinoma cells (Caco-2) were obtained from ATCC (American Type Culture Collection) (Manassas, VA, USA). Caco-2 cells were cultured in Dulbecco’s Modified Eagle’s Medium (DMEM), supplemented with 10% fetal bovine serum, 1% nonessential amino acids, 100 U mL^−1 penicillin, and 100 µg mL^−1 streptomycin. The cells were split upon reaching the 80–90% confluence to make them ready to seed. Afterwards, the cells were seeded at a density of 80,000 cells/well in a 12-well tissue culture plate with a 0.4 µm pore size, purchased from CELLTREAT Scientific Products (Pepperell, MA, USA), and incubated at 37 °C in an incubator with 5% CO2 conditions. […] The integrity of the monolayer was evaluated by measuring the transepithelial electrical resistance (TEER) value using EVOM2™ Epithelial Voltohmmeter purchased from World Precision Instruments Inc. (Sarasota, FL, USA).
(§2) JNJ was spiked at a final concentration of 10 µM to the apical side in a volume of 500 µL HBSS-HEPES (10 mM) buffer along with the positive control (propranolol and atenolol) in respective wells. […] After determined timepoints (0, 30, 60, 90, and 120 min), 100 µL aliquots were collected from the apical or basolateral sites, each time replacing with an equal volume of blank buffer. […]

Caco-2 cell monolayer = test: Caco-2 permeability study; type: in vitro ADME, human; details: absorptive direction (apical to basal), 10 µM
Experimental: as §1, §2

Kinetic solubility study = type: physicochemical; details: PBS, room temperature, read-out: kinetic aqueous solubility
Experimental: An amount of 500 µL of PBS was taken into a 96-well plate in the required rows. The required volume of the JNJ stock solution was spiked to make the final concentrations of 160, 80, 60, 50, 40, 20, 10, and 5 µg mL^−1. The plate was vortexed at 1000 rpm for 5 min and incubated at room temperature for 2 h. After incubation, aliquots of 100 µL of the samples were collected and diluted 2 times with acetonitrile. Diluted samples were centrifuged at 2200× g for 10 min. Then, 10 µL of supernatant was added to another collection plate, where previously 200 µL of the mobile phase supplemented with 10 µL IS was taken.

[2] = Matrix stability study in mouse plasma; type: in vitro ADME; details: 5 µg mL^−1, 37 °C, approximately 5 h, triplicate, read-out: concentration remaining (%)
Experimental: For the matrix stability study, JNJ was spiked into mouse plasma and brain homogenate at a final concentration of 5 µg mL^−1 and incubated at 37 °C for 5 h on a shaking water bath in triplicate. At the specified sampling times, 50 µL aliquots were taken in the collection plate, followed by quenching with 300 µL acetonitrile containing 10 µL IS. After final collection, samples were vortexed at 1000 rpm for 2 min and centrifuged at 2200× g for 10 min, and the collected supernatant was analyzed using LC-MS/MS. Stability was estimated by determining the % remaining after 5 h of incubation using Equation (1).(1) % remaining=Concentration5h/Concentration0h×100

[3] = Microsomal metabolic stability, human liver microsomes; type: in vitro ADME
Experimental: Mouse and human liver microsomes were used for the metabolic stability assay. In brief, the incubation mixture (500 µL) consisted of phosphate-buffered saline (PBS) (100 mM, pH 7.4), microsomal protein (0.5 mg mL^−1), magnesium chloride (10 mM), and NADPH (2 mM). Following pre-incubation of the above reaction mixture for 10 min at 37 °C, the reaction was initiated by spiking JNJ at a final 1 µg mL^−1 concentration. Alongside the test compound, testosterone at a final concentration of 1 µg mL^−1 was incubated as a positive control. All experiments were performed in triplicate. At sampling times of 0, 5, 10, 20, 30, 45, and 60 min, 40 µL samples were collected and quenched with 300 µL ice-chilled acetonitrile supplemented with 10 µL IS. Simultaneously, samples from NADPH-free negative controls were also withdrawn and processed accordingly to confirm any non-enzymatic degradation. Finally, after 1 h of collection, samples were vortexed at 1000 rpm for 1 min and centrifuged at 2200× g for 15 min, and the collected supernatant was analyzed using LC-MS/MS.
The natural logarithm of the area ratio versus time was plotted, and the slope of the curve was calculated by a linear regression equation to generate the elimination rate constant, k (min^−1). CLint was calculated by the following equation:(2) CLint=0.693/t1/2×Volume of incubation mixture (mL)/microsomal protein (mg)
CLH,int of JNJ in the mouse and human liver was then estimated from CLint using the scaling factor.(3) CLH,int=CLint×Microsomal protein (mg)/Liver (g)×Liver weight (g)/Body weight (kg)
Here, 45 and 32 mg of microsomal protein per g of liver weight were applied, and 60 and 25 g of liver weight per kg body weight were used for mouse and human tissue, respectively.

Papp A→B at 120 min, 10 µM [1]: 3.4 ± 0.4 ×10⁻⁶ cm/s
apparent permeability (Papp), Caco-2 (Caco-2 cell monolayer): 3 ± 0.4 (×10^−6) cm s^−1
solubility kinetic at 2 h (Kinetic solubility study): 3 ± 0.6 µg/mL (≈ 6.21 µM)
remaining at 5 h, 5 µg mL^−1 [2]: ~100%
microsomal intrinsic clearance (CLint) ([3]; HLM, mean ± SD, n = 3): 0.01 ± 0.001 mL min^−1 mg^−1 protein
half-life at 1 µg mL^−1 ([3]; human, liver microsomes, pH 7.4, HLM, mean ± SD, n = 3, read-out: Half-life (t1/2)): 2.47 ± 0.167 h
remaining at 1 h, 1 µg mL^−1 ([3]; human, liver microsomes, pH 7.4, HLMs, NADPH, 1 µg mL^−1, n = 3, read-out: percent remaining concentration after 1 h incubation): 72 ± 2%
SMILES: Nc1nc2cc(CC[C@H]3C[C@@H](n4ccc5c(N)ncnc54)[C@H](O)[C@@H]3O)ccc2cc1Br [JNJ, JNJ-64619178]
hepatic intrinsic clearance (CLH,int) ([3]; HLM, scaled from CLint (32 mg protein/g liver, 25 g liver/kg)): 7 ± 0.6 mL min^−1 kg^−1 body weight and 7 ± 0.5 mL min^−1 kg^−1 body weight
